Measured values reported in patent publication US8378117B2 (priority 2005, dated 2013).
Where two headings read alike, the source gives them in different places.

Key:
CB1 receptor = biological target: T1, CB1 receptor (Homo sapiens, UniProt P21554); assay: Binding assay for CB1 agonists or inverse agonists (SK-N-MC membranes, [3H]-CP-55,940); details: read-out: CB1 receptor binding percent inhibition, test concentration 0.2 μM (footnote 2)
T1 construct: expressed in transfected cells
Method in brief: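 Membranes from SK-N-MC cells stably expressing human CB1 incubated with compound and [3H]-CP-55,940 ([…]) for 90 min at 30° C in Tris-HCl pH 7.5, MgCl2, EDTA, fatty-acid-free BSA. Non-specific binding defined with 10 uM WIN 55,212; filtration, scintillation count; IC50 by linear regression.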

CB2 receptor = biological target: T2, CB2 receptor (Homo sapiens, UniProt P34972); assay: Binding assay for CB2 agonists or inverse agonists (SK-N-MC membranes, [3H]-CP-55,940)
T2 construct: expressed in transfected cells
T2 sequence (P34972 whole entry): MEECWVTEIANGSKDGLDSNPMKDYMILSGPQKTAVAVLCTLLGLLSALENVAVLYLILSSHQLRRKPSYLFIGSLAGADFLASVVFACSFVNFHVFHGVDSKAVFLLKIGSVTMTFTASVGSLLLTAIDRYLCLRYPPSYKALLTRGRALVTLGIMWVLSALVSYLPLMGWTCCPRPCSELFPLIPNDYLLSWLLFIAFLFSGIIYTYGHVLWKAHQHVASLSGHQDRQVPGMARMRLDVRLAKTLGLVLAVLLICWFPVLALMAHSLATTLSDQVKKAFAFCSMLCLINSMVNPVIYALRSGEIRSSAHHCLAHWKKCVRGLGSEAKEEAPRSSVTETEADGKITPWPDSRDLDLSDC
Method in brief: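 Membranes from SK-N-MC cells stably expressing human CB2 were incubated with radioligand and test compounds for 90 min at 30 °C in Tris-HCl buffer, pH 7.5, with MgCl2, EDTA and fatty-acid-free BSA. Filter-bound radioactivity was counted; IC50 was derived by linear regression of percent inhibition.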

[1] = test concentration 0.2 μM (footnote 2), read-out: CB2 receptor binding percent inhibition
[2] = read-out: CB2 receptor binding percent inhibition, test concentration 0.2 μM (footnote 2)

T1 sequence (P21554 whole entry): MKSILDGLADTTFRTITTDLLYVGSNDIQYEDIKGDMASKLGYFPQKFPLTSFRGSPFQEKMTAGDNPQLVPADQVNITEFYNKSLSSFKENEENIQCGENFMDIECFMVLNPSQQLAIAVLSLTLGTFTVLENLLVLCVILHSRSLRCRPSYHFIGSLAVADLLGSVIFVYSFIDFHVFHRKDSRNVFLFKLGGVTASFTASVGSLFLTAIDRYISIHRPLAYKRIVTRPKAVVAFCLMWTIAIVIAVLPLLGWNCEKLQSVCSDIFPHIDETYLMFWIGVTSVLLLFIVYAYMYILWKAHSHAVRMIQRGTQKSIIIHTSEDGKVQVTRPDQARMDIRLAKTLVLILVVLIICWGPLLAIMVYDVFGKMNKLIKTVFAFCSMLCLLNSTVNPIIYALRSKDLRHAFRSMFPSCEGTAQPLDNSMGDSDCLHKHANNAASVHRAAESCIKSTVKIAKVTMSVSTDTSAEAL

SMILES | inhibition at 0.2 µM (CB1 receptor) | inhibition at 0.2 µM (CB2 receptor; [1]) | inhibition at 0.2 µM (CB2 receptor; [2])
O=C(N[C@H](CO)c1ccccc1)c1nn(-c2ccc(Cl)cc2Cl)c2c1CCCC[C@H]2Cc1cccc(Cl)c1 [Cpd 162, (8S)-8-(3-chloro-benzyl)-1-(2,4-dichloro-phenyl)-1,4,5,6,7,8-hexahydro-cycloheptapyrazole-3-carboxylic acid [(1S)-2-hydroxy-1-phenyl-ethyl]-amide] | 16% | 5% | –
O=C(N[C@@H](CO)Cc1ccccc1)c1nn(-c2ccc(Cl)cc2Cl)c2c1CCCCC2Cc1cccc(Cl)c1 (stereo partly drawn) [Cpd 163, 8-(3-chloro-benzyl)-1-(2,4-dichloro-phenyl)-1,4,5,6,7,8-hexahydro-cycloheptapyrazole-3-carboxylic acid [(1R)-1-benzyl-2-hydroxy-ethyl]-amide] | 44% | 7% | –
O=C(N[C@H](CO)Cc1ccccc1)c1n[nH]c2c1CCCCC2Cc1cccc(Cl)c1 (stereo partly drawn) [Cpd 166, 8-(3-chloro-benzyl)-1,4,5,6,7,8-hexahydro-cycloheptapyrazole-3-carboxylic acid [(1S)-1-benzyl-2-hydroxy-ethyl]-amide] | 24% | – | 75%
O=C(N[C@H](CO)c1ccccc1)c1nn(-c2ccc(F)cc2F)c2c1CCCCC2Cc1cccc(F)c1 (stereo partly drawn) [Cpd 168, 1-(2,4-difluoro-phenyl)-8-(3-fluoro-benzyl)-1,4,5,6,7,8-hexahydro-cycloheptapyrazole-3-carboxylic acid [(1S)-2-hydroxy-1-phenyl-ethyl]-amide] | 18% | 11% | –
O=C(N[C@H](CCl)c1ccccc1)c1nn(-c2ccc(F)cc2F)c2c1CCCCC2Cc1cccc(F)c1 (stereo partly drawn) [Cpd 169, 1-(2,4-difluoro-phenyl)-8-(3-fluoro-benzyl)-1,4,5,6,7,8-hexahydro-cycloheptapyrazole-3-carboxylic acid [(1S)-2-chloro-1-phenyl-ethyl]-amide] | 24% | 14% | –
C[C@@H](NC(=O)c1nn(-c2ccncc2)c2c1CCCC/C2=C\c1ccc(Cl)cc1)c1ccccc1 [Cpd 170, (8E)-8-(4-chloro-benzylidene)-1-pyridin-4-yl-1,4,5,6,7,8-hexahydro-cycloheptapyrazole-3-carboxylic acid [(1R)-1-phenyl-ethyl]-amide] | 29% | 27% | –
C[C@H](NC(=O)c1nn(-c2ccncc2)c2c1CCCC/C2=C\c1ccc(Cl)cc1)c1ccccc1 [Cpd 171, (8E)-8-(4-chloro-benzylidene)-1-pyridin-4-yl-1,4,5,6,7,8-hexahydro-cycloheptapyrazole-3-carboxylic acid [(1S)-1-phenyl-ethyl]-amide] | 2% | 38% | –
C[C@@H](NC(=O)c1nn(-c2ccc(F)cc2F)c2c1CCCCC2Cc1cccc(F)c1)c1ccccc1 (stereo partly drawn) [Cpd 173, 1-(2,4-difluoro-phenyl)-8-(3-fluoro-benzyl)-1,4,5,6,7,8-hexahydro-cycloheptapyrazole-3-carboxylic acid [(1R)-1-phenyl-ethyl]-amide] | 32% | 19% | –
C[C@@H](NC(=O)c1nn(C2CCCCC2)c2c1CCCCC2Cc1cccc(F)c1)c1ccccc1 (stereo partly drawn) [Cpd 174, 1-cyclohexyl-8-(3-fluoro-benzyl)-1,4,5,6,7,8-hexahydro-cycloheptapyrazole-3-carboxylic acid [(1R)-1-phenyl-ethyl]-amide] | 0% | 33% | –
C[C@@H](NC(=O)c1nn(-c2nccc(C(F)(F)F)n2)c2c1CCCCC2Cc1cccc(Cl)c1)c1ccccc1 (stereo partly drawn) [Cpd 175, 8-(3-chloro-benzyl)-1-(4-trifluoromethyl-pyrimidin-2-yl)-1,4,5,6,7,8-hexahydro-cycloheptapyrazole-3-carboxylic acid [(1R)-1-phenyl-ethyl]-amide] | 30% | 36% | –
O=C(N[C@@H](CO)c1ccccc1)c1nn(-c2nccc(C(F)(F)F)n2)c2c1CCCCC2Cc1cccc(Cl)c1 (stereo partly drawn) [Cpd 176, 8-(3-chloro-benzyl)-1-(4-trifluoromethyl-pyrimidin-2-yl)-1,4,5,6,7,8-hexahydro-cycloheptapyrazole-3-carboxylic acid [(1R)-2-hydroxy-1-phenyl-ethyl]-amide] | 4% | 43% | –
C[C@@H](NC(=O)c1nn(-c2ccnc3cc(Cl)ccc23)c2c1CCCCC2Cc1cccc(Cl)c1)c1ccccc1 (stereo partly drawn) [Cpd 177, 8-(3-chloro-benzyl)-1-(7-chloro-quinolin-4-yl)-1,4,5,6,7,8-hexahydro-cycloheptapyrazole-3-carboxylic acid [(1R)-1-phenyl-ethyl]-amide] | 4% | 27% | –
O=C(N[C@@H](CCl)c1ccccc1)c1nn(-c2nccc(C(F)(F)F)n2)c2c1CCCCC2Cc1cccc(Cl)c1 (stereo partly drawn) [Cpd 178, 8-(3-chloro-benzyl)-1-(4-trifluoromethyl-pyrimidin-2-yl)-1,4,5,6,7,8-hexahydro-cycloheptapyrazole-3-carboxylic acid [(1R)-2-chloro-1-phenyl-ethyl]-amide] | 29% | 29% | –
O=C(N[C@H](CCl)c1ccccc1)c1nn(-c2nccc(C(F)(F)F)n2)c2c1CCCCC2Cc1cccc(Cl)c1 (stereo partly drawn) [Cpd 179, 8-(3-chloro-benzyl)-1-(4-trifluoromethyl-pyrimidin-2-yl)-1,4,5,6,7,8-hexahydro-cycloheptapyrazole-3-carboxylic acid [(1S)-2-chloro-1-phenyl-ethyl]-amide] | 0% | 29% | –
C[C@@H](NC(=O)c1nn(-c2ccncc2)c2c1CCCC/C2=C\c1ccc(Cl)cc1)C1CCCCC1 [Cpd 180, (8E)-8-(4-chloro-benzylidene)-1-pyridin-4-yl-1,4,5,6,7,8-hexahydro-cycloheptapyrazole-3-carboxylic acid [(1R)-1-cyclohexyl-ethyl]-amide] | 40% | 86% | –
C[C@H](NC(=O)c1nn(-c2ccncc2)c2c1CCCC/C2=C\c1ccc(Cl)cc1)C1CCCCC1 [Cpd 181, (8E)-8-(4-chloro-benzylidene)-1-pyridin-4-yl-1,4,5,6,7,8-hexahydro-cycloheptapyrazole-3-carboxylic acid [(1S)-1-cyclohexyl-ethyl]-amide] | 32% | 57% | –
O=C(NN1CCCCC1)c1nn(-c2ccncc2)c2c1CCCC/C2=C\c1ccc(Cl)cc1 [Cpd 182, (8E)-8-(4-chloro-benzylidene)-1-pyridin-4-yl-1,4,5,6,7,8-hexahydro-cycloheptapyrazole-3-carboxylic acid piperidin-1-ylamide] | 21% | 31% | –
O=C(NN1CCOCC1)c1nn(-c2ccncc2)c2c1CCCC/C2=C\c1ccc(Cl)cc1 [Cpd 183, (8E)-8-(4-chloro-benzylidene)-1-pyridin-4-yl-1,4,5,6,7,8-hexahydro-cycloheptapyrazole-3-carboxylic acid morpholin-4-ylamide] | 0% | 14% | –
O=C(N[C@@H](CO)Cc1ccccc1)c1nn(-c2nccc(C(F)(F)F)n2)c2c1CCCCC2Cc1cccc(Cl)c1 (stereo partly drawn) [Cpd 186, 8-(3-chloro-benzyl)-1-(4-trifluoromethyl-pyrimidin-2-yl)-1,4,5,6,7,8-hexahydro-cycloheptapyrazole-3-carboxylic acid [(1R)-1-benzyl-2-hydroxy-ethyl]-amide] | 12% | 58% | –
O=C(N[C@@H](CCl)Cc1ccccc1)c1nn(-c2nccc(C(F)(F)F)n2)c2c1CCCCC2Cc1cccc(Cl)c1 (stereo partly drawn) [Cpd 187, 8-(3-chloro-benzyl)-1-(4-trifluoromethyl-pyrimidin-2-yl)-1,4,5,6,7,8-hexahydro-cycloheptapyrazole-3-carboxylic acid [(1R)-1-benzyl-2-chloro-ethyl]-amide] | 12% | 23% | –
C[C@H](NC(=O)c1nn(-c2ccccc2Cl)c2c1CCCC/C2=C\c1ccc(Cl)cc1)c1ccccc1 [Cpd 191, (8E)-8-(4-chloro-benzylidene)-1-(2-chloro-phenyl)-1,4,5,6,7,8-hexahydro-cycloheptapyrazole-3-carboxylic acid [(1S)-1-phenyl-ethyl]-amide] | 47% | – | 7%
C[C@H](NC(=O)c1nn(-c2ccccc2Cl)c2c1CCCC/C2=C\c1ccc(Cl)cc1)C1CCCCC1 [Cpd 192, (8E)-8-(4-chloro-benzylidene)-1-(2-chloro-phenyl)-1,4,5,6,7,8-hexahydro-cycloheptapyrazole-3-carboxylic acid [(1S)-1-cyclohexyl-ethyl]-amide] | 45% | – | 7%
O=C(NN1CCCCC1)c1nn(-c2ccccc2Cl)c2c1CCCC/C2=C\c1ccc(Cl)cc1 [Cpd 193, (8E)-8-(4-chloro-benzylidene)-1-(2-chloro-phenyl)-1,4,5,6,7,8-hexahydro-cycloheptapyrazole-3-carboxylic acid piperidin-1-ylamide] | 43% | 16% | –
O=C(NN1CCOCC1)c1nn(-c2ccccc2Cl)c2c1CCCC/C2=C\c1ccc(Cl)cc1 [Cpd 194, (8E)-8-(4-chloro-benzylidene)-1-(2-chloro-phenyl)-1,4,5,6,7,8-hexahydro-cycloheptapyrazole-3-carboxylic acid morpholin-4-ylamide] | 19% | 10% | –
